# Source: patent publication US20260271928A1, “CONTROL OF PESTS RESISTANT TO INSECTICIDES” (Syngenta Crop Protection Ag, priority 2023, published 2026)
# Target: T1, vesicular acetylcholine transporter (VAChT) (Lucilia sericata, UniProt Z9IC98WFD0)
# T1 sequence (Z9IC98WFD0 1-593): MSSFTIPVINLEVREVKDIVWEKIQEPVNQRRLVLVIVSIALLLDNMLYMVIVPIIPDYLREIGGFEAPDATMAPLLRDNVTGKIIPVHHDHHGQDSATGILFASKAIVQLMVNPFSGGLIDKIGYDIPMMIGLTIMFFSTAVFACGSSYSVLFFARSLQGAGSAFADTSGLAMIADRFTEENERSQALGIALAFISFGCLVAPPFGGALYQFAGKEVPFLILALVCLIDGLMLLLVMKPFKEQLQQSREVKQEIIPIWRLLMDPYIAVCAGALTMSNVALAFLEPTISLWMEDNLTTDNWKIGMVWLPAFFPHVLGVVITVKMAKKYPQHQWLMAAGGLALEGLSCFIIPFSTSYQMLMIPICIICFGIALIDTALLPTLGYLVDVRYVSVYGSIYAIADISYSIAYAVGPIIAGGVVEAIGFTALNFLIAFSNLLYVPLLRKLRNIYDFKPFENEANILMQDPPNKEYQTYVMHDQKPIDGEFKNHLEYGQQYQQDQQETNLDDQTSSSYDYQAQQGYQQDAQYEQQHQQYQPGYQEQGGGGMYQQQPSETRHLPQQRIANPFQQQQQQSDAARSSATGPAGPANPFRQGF
# Assay: [3H]-A1 radioligand binding and competitive displacement, Lucilia sericata head membrane
# Conditions: Lucilia head membrane, 9 nM [3H]-A1; read-out: Affinity at the [3H]-A1 binding site, competitive displacement
# Description: Methods herein were generally adapted from this publication.
# Binding of [^3H]-A1 was measured using Lucilia sericata head membrane suspended in 50 mM Tris HCL buffer (pH7.4) containing 120 mM NaCl, and 100 mM EDTA, at a protein concentration of 1 mg/ml for dispensing into 96 well plates to give 50 μg protein per well. [^3H]-A1 was added to plates as a 37 MBq/ml ethanol stock dissolved in 2.2 ml assay buffer to give an approximate final well concentration of 9 nM. Test compounds were incubated at 25° C. for 90 min with 9 nM [^3H]-A1 (or a range of concentrations for saturation analysis) at either 8 rates (where prepared manually) or 6 or 10 rates where prepared using robotics. The binding incubation was terminated by vacuum filtration through glass fibre filter mats (PerkinElmerFilterMat A, Seer Green, UK), pre-treated with 0.5% polyethyleneimine and mounted on a Tomtec cell harvester. The filters were then washed rapidly with ice-cold water, dried and bound radioactivity measured using an EG&GWallac betaplate scintillation counter after impregnating the filter with solid scintillant (PerkinElmer MeltiLex). Non specific binding was subtracted from the counts at each data point to give the specific binding. The amount of displacement was calculated as a % of the control and the IC50 calculated from a curve fitted using a single-exponential algorithm.
# Data was fitted with a single-exponential model.
# To identify the insecticidal target-protein for alkylysulfones we examined the ability of a range of ligands with identified target proteins to displace [^3H]-A1 from its site on Lucilia membranes (see Table X3).
row,Compound,IC50 [nM]
1,CCS(=O)(=O)c1cc(C(F)(F)F)cnc1-c1nc2cc(C(F)(F)F)ncc2n1C [A2],39
2,CCS(=O)(=O)c1cc(C(F)(F)F)cnc1-c1nc2cc(C(F)(F)F)cnc2n1C [A3],10
3,CCS(=O)(=O)c1cc(C(F)(F)F)cnc1-c1nnc(-c2cc(C(F)(F)F)ccn2)n1C [C1],6.3

# Same assay, conditions: Lucilia membranes; ligands with identified target proteins
row,Compound,[3H]-A1 displacement IC50
1,Cc1ccc(/N=C/N(C)/C=N/c2ccc(C)cc2C)c(C)c1 [Amitraz],Inactive or IC50>
2,Cc1cc(Cl)ccc1N=CN(C)C [Chlordimeform],Inactive or IC50>

# Same assay, conditions: Lucilia membranes; ligands with identified target proteins; read-out: [3H]-A1 displacement IC50
row,Compound,IC50 [nM]
1,O=C(c1ccnc(Cl)c1)N1CC2(CCN(C/C=C/c3ccc(Cl)cc3)CC2)c2cc(F)ccc21 [5-F-CASPP],2.3
2,CNC(=O)O/N=C/C(C)(C)SC [Aldicarb],> 52600
3,Nc1cccc2c1CC(N1CCC(c3ccccc3)CC1)C(O)C2 (centres unmarked) [Aminobenzovesamicol],17.6
4,CCCCCC[C@H]1C(=O)O[C@H](C)[C@H](NC(=O)c2cccc(NC=O)c2O)C(=O)O[C@@H](C)[C@@H]1OC(=O)CC(C)C [Antimycin A1],> 18200
5,CNC(=O)c1cc(Cl)cc(C)c1NC(=O)c1cc(Br)nn1-c1ncccc1Cl [Chlorantraniliprole],> 20800
6,CNC(=O)c1cc(C#N)cc(C)c1NC(=O)c1cc(Br)nn1-c1ncccc1Cl [Cyantraniliprole],> 21200
7,COC(=O)C12Cc3cc(Cl)ccc3C1=NN(C(=O)Nc1ccc(OC(F)(F)F)cc1)CO2 (centres unmarked) [DCJW],> 21300
8,ClC1=C(Cl)[C@]2(Cl)[C@@H]3[C@@H]4C[C@@H]([C@H]5O[C@@H]45)[C@@H]3[C@@]1(Cl)C2(Cl)Cl [Dieldrin],> 26500
9,ClC1=C(Cl)C2(Cl)C3C4CC(C5OC45)C3C1(Cl)C2(Cl)Cl (centres unmarked) [Endrin],> 26500
10,CC(C)C(C(=O)OC(C#N)c1cccc(Oc2ccccc2)c1)c1ccc(Cl)cc1 (centres unmarked) [Fenvalerate],> 23900
11,N#Cc1nn(-c2c(Cl)cc(C(F)(F)F)cc2Cl)c(N)c1[S+]([O-])C(F)(F)F (centres unmarked) [Fipronil],> 22900
12,CC(C)(C)N(NC(=O)c1ccc(Cl)cc1)C(=O)c1ccccc1 [Halofenozide],> 30300
13,O=[N+]([O-])NC1=NCCN1Cc1ccc(Cl)nc1 [Imidacloprid],> 19800
14,COC(=O)N(C(=O)N1CO[C@@]2(C(=O)OC)Cc3cc(Cl)ccc3C2=N1)c1ccc(OC(F)(F)F)cc1 [Indoxacarb],> 19000
15,CCN(CC)c1nc(C)cc(OP(=S)(OC)OC)n1 [Pirimiphos-methyl],> 32800
16,COC1CCC2(CC1)NC(=O)C(c1cc(C)ccc1C)=C2O (centres unmarked) [Spirotetramat enol],> 33200
17,CCc1ccc(C(=O)NN(C(=O)c2cc(C)cc(C)c2)C(C)(C)C)cc1 [Tebufenozide],> 28400
18,CC(C)=CC1C(C(=O)OCN2C(=O)C3=C(CCCC3)C2=O)C1(C)C (centres unmarked) [Tetramethrin],17400
19,Emamectin Benzoate,11300
20,Spinosad,> 13700

# Same assay, conditions: Lucilia sericata head membrane, 9 nM [3H]-A1; read-out: IC50 Displacement Values of [3H]-A1
row,Compound,IC50 [nM]
1,CCS(=N)(=O)c1cc(C(F)(F)F)cnc1-c1nc2cc(C(F)(F)F)cnc2n1C (centres unmarked) [VAChT-1],100
2,CCS(=O)(=O)c1cc(C2(C#N)CC2)cnc1-c1nc2cc(C(F)(F)F)cnc2n1C [VAChT-7],8
3,CCS(=O)(=O)c1cccnc1-c1nc2cc(S(=O)(=O)C(F)(F)F)ccc2o1 [VAChT-13],2
4,CCS(=O)(=O)c1ccc(-n2cncn2)nc1-c1nc2cc(C(F)(F)F)cnc2n1C [VAChT-16],10
5,CCS(=O)(=O)c1c(-c2nc3cc(C(F)(F)F)cnc3n2C)nc2ccc(C(F)(F)F)cn12 [VAChT-19],2
6,CCS(=O)(=O)c1cc(C2(C#N)CC2)cnc1-c1nc2cc3c(cc2n1C)OC(F)(F)O3 [VAChT-20],4
7,CC[S@](=N)(=O)c1cc(OC(C)(C)C#N)cnc1-c1nc2cc(C(F)(F)F)cnc2n1C [VAChT-27],25
8,CC[S@@](=N)(=O)c1cc(C2(C#N)CC2)cnc1-c1nc2cc(C(F)(F)F)ncc2n1C [VAChT-34],40
9,CCS(=N)(=O)c1cc(C2(C#N)CC2)cnc1-c1nc2cc(C(F)(F)F)nnc2n1C (centres unmarked) [VAChT-35],79

# Same assay, conditions: read-out: Affinity at the [3H]-A1 binding site, competitive displacement; Lucilia head membrane, 9 nM [3H]-A1
row,Compound,IC50 [nM]
1,CCS(=O)(=O)c1cccnc1-c1nc2cc(S(=O)(=O)C(F)(F)F)ccc2o1 [B1],2

# Same assay, conditions: read-out: [3H]-A1 displacement IC50
row,Compound,IC50 [nM]
1,CN/C(=N/CC1CCOC1)N[N+](=O)[O-] (centres unmarked) [Dinotofuran],> 49500

# Tested on: Resistant Myzus persicae
# Assay: Resistant Myzus persicae (rMP)
# Format: in vivo
# Conditions: field-collected 2009, Southern France
# Description: Pepper plants were infested with an Myzus persicae population of mixed ages. One day after infestation the plants were treated with the diluted test solutions in a spray chamber. 5 days after treatment samples were assessed for mortality.
row,Compound,resistance of the rMP population to the insecticide [fold]
1,CC1(C)[C@H](C(=O)O[C@H](C#N)c2cccc(Oc3ccccc3)c2)[C@@H]1/C=C(\Cl)C(F)(F)F (racemic) [Lambda-cyhalothrin],> 5000

# Tested on: Resistant Bemisia tabaci
# Assay: Resistant Bemisia tabaci (rBT)
# Format: in vivo
# Conditions: biotype Q, field-collected 2000, Almeria, Spain
# Description: Cotton leaf discs were placed upside down in petri dishes on water agar and treated with the diluted test solutions in a spray chamber. After drying, leaf discs were infested with 10 adult Bemisia tabaci. Dishes were covered with a fabric filter and sealed with a perforated plastic lid. 4 days after treatment samples were assessed for mortality.
# Resistant Bemisia tabaci (rBT)
# Biotype Q originally field-collected in 2000 from Almeria, Spain. […] The strain carried the mutation L925I in the voltage-gated sodium channel conferring resistance to pyrethroids. It also had higher expression of the p450 CYP6CM1 conferring metabolic resistance to neonicotinoids.
row,Compound,resistance of the rBT population to the insecticide [fold]
1,CC1(C)[C@H](C(=O)O[C@H](C#N)c2cccc(Oc3ccccc3)c2)[C@@H]1/C=C(\Cl)C(F)(F)F (racemic) [Lambda-cyhalothrin],40

# Tested on: Resistant Nilaparvata lugens
# Assay: Resistant Nilaparvata lugens (rNIL)
# Format: in vivo
# Conditions: collected 2005, Karnataka, India
# Description: Rice plants were treated with the diluted test solutions in a spray chamber. After drying, plants were infested with ~20 Nilaparvata lugens nymphs (N5). 7 days after the treatment samples were assessed for mortality. The adults were then removed and 15 days after the treatment samples were assessed for effect on F1 generation.
# Resistant Nilaparvata lugens (rNIL)
# Originally collected from Hosa-Hally, Karnataka district, India in 2005.
row,Compound,resistance of the rNIL strain to the insecticide [fold]
1,CN1COCN(Cc2cnc(Cl)s2)/C1=N\[N+](=O)[O-] [Thiamethoxam],200
2,CN/C(=N\[N+](=O)[O-])NCc1cnc(Cl)s1 [clothianidin],200
3,CCN(Cc1ccc(Cl)nc1)/C(=C/[N+](=O)[O-])NC [nitenpyram],30

# Tested on: Plutella xylostella
# Assay: Plutella xylostella (diamond back moth), larvae, feeding/contact (sPLU)
# Format: in vivo
# Conditions: sensitive strain, L3 larvae on Chinese cabbage, assessed 4 days after infestation; 0 = BP80 >200 ppm
# Description: (§1) Plutella xylostella (Diamond Back Moth), Larvae, Feeding/Contact (sPLU) Chinese cabbage plants were treated with the diluted test solutions in a spray chamber. After drying, the leaves were cut off and placed in petri dishes with wetted filter paper. One day after treatment, the leaves were infested with 10 Plutella xylostella larvae (L3). Samples were assessed 4 days after infestation for mortality and growth regulation.
row,Compound,pBP80 s-PLU
1,"CCS(=O)(=O)c1c(N2Cc3ncc(C(F)(F)F)cc3C2=O)nc(-c2ccc(C3(C#N)CC3)cc2)n1C [P77, 1-[4-[5-ethyl-sulfonyl-1-methyl-4-[5-oxo-3-(trifluoromethyl)-7H-pyrrolo[3,4-b]pyridin-6-yl]imidazol-2-yl]phenyl]cyclopro-panecarbonitrile]",5.8

# Tested on: Resistant Plutella xylostella
# Assay: Resistant Plutella xylostella (rPLU)
# Format: in vivo
# Conditions: collected 2013, Changhua, Taiwan
# Description: as §1, with “Chinese” for “Plutella xylostella (Diamond Back Moth), Larvae, Feeding/Contact (sPLU) Chinese”
# Resistant Plutella xylostella (rPLU)
# A number of target-sites mutations were identified in this strain which confer resistance to pyrethroids (L1014F, T929I), organophosphates and carbamates (mAChE: A298S and G324A), and organochlorines (rdl: A298S), and diamides (ryr: G4546E).
row,Compound,resistance of the rPLU strain to the insecticide [fold]
1,CC1(C)[C@H](C(=O)O[C@H](C#N)c2cccc(Oc3ccccc3)c2)[C@@H]1/C=C(\Cl)C(F)(F)F (racemic) [Lambda-cyhalothrin],> 800
2,CCOP(=S)(OCC)Oc1nc(Cl)c(Cl)cc1Cl [chlorpyrifos],100
3,Cc1cc(C(F)(C(F)(F)F)C(F)(F)F)ccc1NC(=O)c1cccc(I)c1C(=O)NC(C)(C)CS(C)(=O)=O [flubendiamide],300
4,abamectin,> 200

# Same assay, conditions: resistant strain, L3 larvae on Chinese cabbage, assessed 4 days after infestation; 0 = BP80 >200 ppm
row,Compound,pBP80 r-PLU
1,"CCS(=O)(=O)c1c(N2Cc3ncc(C(F)(F)F)cc3C2=O)nc(-c2ccc(C3(C#N)CC3)cc2)n1C [P77, 1-[4-[5-ethyl-sulfonyl-1-methyl-4-[5-oxo-3-(trifluoromethyl)-7H-pyrrolo[3,4-b]pyridin-6-yl]imidazol-2-yl]phenyl]cyclopro-panecarbonitrile]",5.8
